Reference: ChEMBL document CHEMBL1201862, “PubChem BioAssay data set” (2004)
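How tested: cells in 96-well plates exposed to compound for 48 hours at five concentrations. GI50 is the concentration that inhibits growth by half.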 Activity calls are given as the source filed them. No stated cut-off is given here; in the data, active = GI50 up to about 1.1 µM and inactive = higher.

Experiments:
Test in all cases: NCI anticancer screen, dose series, 48 h
[1] = system: HOP-62
[2] = system: MDA-MB-435
[3] = system: IGROV-1
[4] = system: NCI/ADR-RES
[5] = system: CCRF-CEM
[6] = system: A549
[7] = system: PC-3
[8] = system: OVCAR-8
[9] = system: LOX IMVI
[10] = system: SN12C
[11] = system: HL-60
[12] = system: SNB-75
[13] = system: SK-MEL-5
[14] = system: SF-539
[15] = system: EKVX
[16] = system: SF-295
[17] = system: COLO 205
[18] = system: 786-0
[19] = system: M14
[20] = system: HCT-116
[21] = system: OVCAR-5
[22] = system: SNB-19
[23] = system: HCC 2998
[24] = system: DU-145
[25] = system: HOP-92
[26] = system: TK-10
[27] = system: UACC-257
[28] = system: HCT-15
[29] = system: Hs-578T
[30] = system: NCI-H522
[31] = system: UACC-62
[32] = system: OVCAR-4
[33] = system: U-251
[34] = system: UO-31
[35] = system: OVCAR-3
[36] = system: CAKI-1
[37] = system: RPMI-8226
[38] = system: T47D
[39] = system: K562
[40] = system: SK-MEL-28
[41] = system: NCI-H23
[42] = system: MCF7
[43] = system: NCI-H460
[44] = system: HT-29
[45] = system: SW-620
[46] = system: MDA-N
[47] = system: KM12
[48] = system: RXF 393
[49] = system: SK-OV-3
[50] = system: SF-268
[51] = system: MOLT-4
[52] = system: MDA-MB-231
[53] = system: ACHN
[54] = system: Malme-3M
[55] = system: BT-549
[56] = system: A498
[57] = system: SK-MEL-2

Measured: GI50

CC[N+]1(C)CCC(O)(/C=C/c2ccc(Cl)cc2)C(C(=O)/C=C/c2ccc(Cl)cc2)C1 (configuration not stated)
4.56 µM: [28]
inactive: [1] 14.8 µM | [2] 3.85 µM | [3] 4.7 µM | [4] 9.64 µM | [6] 13.9 µM | [7] 10.7 µM | [8] 4.59 µM | [9] 2.71 µM | [10] 7.11 µM | [11] 1.6 µM | [12] 11.3 µM | [13] 10.5 µM | [14] 2.35 µM | [15] 18.8 µM | [16] 16.2 µM | [17] 3.55 µM | [18] 3.01 µM | [19] > 19.9 µM | [20] 3.48 µM | [21] 17.3 µM | [22] 4.46 µM | [23] 17.5 µM | [24] 12.1 µM | [25] 3.23 µM | [26] 3.51 µM | [27] 14.5 µM | [29] 3.08 µM | [30] 2.88 µM | [31] 13.8 µM | [32] 28.4 µM | [33] 3.81 µM | [34] 6.58 µM | [35] 11.5 µM | [36] 1.9 µM | [38] 4.86 µM | [39] 2.37 µM | [40] 6.17 µM | [41] 9.89 µM | [42] 3.92 µM | [43] 4.48 µM | [44] 3.08 µM | [45] 2.56 µM | [46] 3.45 µM | [47] 2.9 µM | [48] 7.66 µM | [49] 18 µM | [50] 4.55 µM | [51] 2.5 µM | [52] 4.81 µM | [53] 3.6 µM | [54] 6.62 µM | [55] 13.8 µM | [56] 16.4 µM | [57] 15.8 µM
active: [5] 1.08 µM | [37] 0.327 µM
